Results published in ChEMBL document CHEMBL6087436, “The novel β-hairpin antimicrobial peptide D-G(RF)3 demonstrates exceptional antibacterial efficacy” (Eur J Med Chem, 2025).
≈ marks a conversion by molar mass, not a printed value. Calls of active or inactive are those of the source. No cut-off for these calls is given here. Where a SMILES comes first, the peptide text is derived from it. Bridges are numbered along the chain shown (N, C = ends). [ ]: non-standard residue; d: D form. The star is where a group is joined. Ileψ(thiazoline)Cys = CC[C@H](C)[C@H](N)C1=N[C@H](C(=O)*)CS1; dOrn = NCCC[C@@H](N)C(=O)O

Tests used:
Staphylococcus aureus = test: Antibacterial activity against Staphylococcus aureus ATCC 25923 assessed as inhibition of bacterial growth incubated for 18 hrs by microbroth dilution assay; assay type: functional
Bacillus subtilis = test: Antibacterial activity against Bacillus subtilis ATCC 23857 assessed as inhibition of bacterial growth incubated for 18 hrs by microbroth dilution assay; assay type: functional
[1] = test system: Staphylococcus epidermidis; test: Antibacterial activity against Staphylococcus epidermidis ATCC 12228 assessed as inhibition of bacterial growth incubated for 18 hrs by microbroth dilution assay; assay type: functional
Klebsiella pneumoniae = test: Antibacterial activity against Klebsiella pneumoniae ATCC 700603 assessed as inhibition of bacterial growth incubated for 18 hrs by microbroth dilution assay; assay type: functional
Escherichia coli = test: Antibacterial activity against Escherichia coli ATCC 25922 assessed as inhibition of bacterial growth incubated for 18 hrs by microbroth dilution assay; assay type: functional
Pseudomonas aeruginosa [2] = test: Antibacterial activity against Pseudomonas aeruginosa ATCC 27853 assessed as inhibition of bacterial growth incubated for 18 hrs by microbroth dilution assay; assay type: functional
Pseudomonas aeruginosa [3] = test: Induction of drug resistance in Pseudomonas aeruginosa ATCC 27853 assessed as fold increase in MIC incubated for 24 hrs and measured under 40 passages; assay type: functional
Cell membrane [4] = test: Induction of cell membrane permeability in Staphylococcus aureus assessed as bacterial dissolve at 2 times MIC by SEM analysis; assay type: subcellular
[5] = Retention time of the compound by RP-HPLC analysis; assay type: physicochemical
[6] = Hemolytic activity in Kunming mouse erythrocytes assessed as hemolysis incubated for 1 hr by multimode reader analysis; assay type: toxicity, cell-based; settings: erythrocyte
[7] = Hemolytic activity in Kunming mouse erythrocytes assessed as hemolytic rate at 256 uM incubated for 1 hr by multimode reader analysis relative to control; assay type: toxicity, cell-based, Erythrocyte; settings: read-out: Activity
Cell membrane [8] = test: Induction of Cytoplasmic membrane depolarization in Staphylococcus aureus at 3.75 uM measured for every 10 mins by DiSC3(5) dye based fluorescence method

O=C(O)c1cn(C2CC2)c2cc(N3CCNCC3)c(F)cc2c1=O [CIPROFLOXACIN]
MIC (Staphylococcus aureus): 8 µM (≈ 2.65 µg/mL)
MIC (Bacillus subtilis): 2 µM (≈ 0.663 µg/mL)
MIC [1]: 8 µM (≈ 2.65 µg/mL)
MIC (Klebsiella pneumoniae): 8 µM (≈ 2.65 µg/mL)
MIC (Escherichia coli): < 1 µM
MIC (Pseudomonas aeruginosa [2]): 2 µM (≈ 0.663 µg/mL)
fold change (FC) (Pseudomonas aeruginosa [3]): >128
Activity (Cell membrane [4]): Active

N=C(N)NCCC[C@H](NC(=O)CNC(=O)[C@H]1CCCN1C(=O)[C@H](CCCNC(=N)N)NC(=O)[C@H](Cc1ccccc1)NC(=O)[C@H](CCCNC(=N)N)NC(=O)[C@@H](N)Cc1ccccc1)C(=O)N[C@@H](Cc1ccccc1)C(=O)N[C@@H](CCCNC(=N)N)C(=O)N[C@@H](Cc1ccccc1)C(N)=O
Retention_time [5]: 13.555 min
MIC (Staphylococcus aureus): 32 µM (≈ 44.3 µg/mL)
MIC (Bacillus subtilis): 8 µM (≈ 11.1 µg/mL)
MIC [1]: 16 µM (≈ 22.2 µg/mL)
MIC (Klebsiella pneumoniae): > 128 µM
MIC (Escherichia coli): 64 µM (≈ 88.6 µg/mL)
MIC (Pseudomonas aeruginosa [2]): 4 µM (≈ 5.54 µg/mL)
MHC10 [6]: > 256 µM

CC[C@H](C)[C@H](N)C(=O)N[C@@H](CCCNC(=N)N)C(=O)N[C@H](C(=O)N[C@@H](CCCNC(=N)N)C(=O)N[C@H](C(=O)N[C@@H](CCCNC(=N)N)C(=O)N1CCC[C@@H]1C(=O)NCC(=O)N[C@@H](CCCNC(=N)N)C(=O)N[C@H](C(=O)N[C@@H](CCCNC(=N)N)C(=O)N[C@H](C(=O)N[C@@H](CCCNC(=N)N)C(=O)N[C@H](C(N)=O)[C@@H](C)CC)[C@@H](C)CC)[C@@H](C)CC)[C@@H](C)CC)[C@@H](C)CC
Retention_time [5]: 13.442 min
MIC (Staphylococcus aureus): 8 µM (≈ 14.3 µg/mL)
MIC (Bacillus subtilis): 2 µM (≈ 3.57 µg/mL)
MIC [1]: 8 µM (≈ 14.3 µg/mL)
MIC (Klebsiella pneumoniae): 16 µM (≈ 28.6 µg/mL)
MIC (Escherichia coli): 16 µM (≈ 28.6 µg/mL)
MIC (Pseudomonas aeruginosa [2]): 4 µM (≈ 7.15 µg/mL)
MHC10 [6]: 512 µM
hemolysis at 1 h, 256 µM [7]: 4.1%

N=C(N)NCCC[C@H](NC(=O)[C@H](Cc1ccccc1)NC(=O)[C@H](CCCNC(=N)N)NC(=O)[C@H](Cc1ccccc1)NC(=O)[C@H](CCCNC(=N)N)NC(=O)CNC(=O)[C@H]1CCCN1C(=O)[C@H](CCCNC(=N)N)NC(=O)[C@H](Cc1ccccc1)NC(=O)[C@H](CCCNC(=N)N)NC(=O)[C@H](Cc1ccccc1)NC(=O)[C@@H](N)CCCNC(=N)N)C(N)=O
Retention_time [5]: 12.628 min
MIC (Staphylococcus aureus): 16 µM (≈ 27.2 µg/mL)
MIC (Bacillus subtilis): 4 µM (≈ 6.79 µg/mL)
MIC [1]: 4 µM (≈ 6.79 µg/mL)
MIC (Klebsiella pneumoniae): 16 µM (≈ 27.2 µg/mL)
MIC (Escherichia coli): 8 µM (≈ 13.6 µg/mL)
MIC (Pseudomonas aeruginosa [2]): 16 µM (≈ 27.2 µg/mL)
MHC10 [6]: > 256 µM

CC[C@H](C)[C@H](N)C1=N[C@H](C(=O)N[C@@H](CC(C)C)C(=O)N[C@H](CCC(=O)O)C(=O)N[C@H](C(=O)N[C@H]2CCCCNC(=O)[C@H](CC(N)=O)NC(=O)[C@@H](CC(=O)O)NC(=O)[C@H](Cc3cnc[nH]3)NC(=O)[C@@H](Cc3ccccc3)NC(=O)[C@H]([C@@H](C)CC)NC(=O)[C@@H](CCCN)NC2=O)[C@@H](C)CC)CS1 [BACITRACIN] ({Ileψ(thiazoline)Cys}-L[dE]IK[dOrn]I[dF]H[dD]N; lactam 4-C)
MIC (Staphylococcus aureus): 32 µM (≈ 45.5 µg/mL)
MIC (Bacillus subtilis): > 128 µM
MIC [1]: 16 µM (≈ 22.8 µg/mL)
MIC (Klebsiella pneumoniae): > 128 µM
MIC (Escherichia coli): > 128 µM
MIC (Pseudomonas aeruginosa [2]): > 128 µM

NC[C@H]1O[C@H](O[C@H]2[C@H](O)[C@@H](O[C@H]3O[C@H](CO)[C@@H](O)[C@H](N)[C@H]3O)[C@H](N)C[C@@H]2N)[C@H](O)[C@@H](O)[C@@H]1O [KANAMYCIN]
MIC (Staphylococcus aureus): < 1 µM
MIC (Bacillus subtilis): < 1 µM
MIC [1]: > 128 µM
MIC (Klebsiella pneumoniae): 64 µM (≈ 31 µg/mL)
MIC (Escherichia coli): 8 µM (≈ 3.88 µg/mL)
MIC (Pseudomonas aeruginosa [2]): > 128 µM

C[C@@H](O)[C@H]1C(=O)N2C(C(=O)O)=C(SCCNC=N)C[C@H]12 [IMIPENEM ANHYDROUS]
MIC (Staphylococcus aureus): < 1 µM
MIC (Bacillus subtilis): < 1 µM
MIC [1]: < 1 µM
MIC (Klebsiella pneumoniae): < 1 µM
MIC (Escherichia coli): < 1 µM
MIC (Pseudomonas aeruginosa [2]): 16 µM (≈ 4.79 µg/mL)

NCCCC[C@H](NC(=O)CNC(=O)[C@H]1CCCN1C(=O)[C@H](CCCCN)NC(=O)[C@H](Cc1c[nH]c2ccccc12)NC(=O)[C@H](CCCCN)NC(=O)[C@H](Cc1c[nH]c2ccccc12)NC(=O)[C@H](CCCCN)NC(=O)[C@@H](N)Cc1c[nH]c2ccccc12)C(=O)N[C@@H](Cc1c[nH]c2ccccc12)C(=O)N[C@@H](CCCCN)C(=O)N[C@@H](Cc1c[nH]c2ccccc12)C(=O)N[C@@H](CCCCN)C(=O)N[C@@H](Cc1c[nH]c2ccccc12)C(N)=O (H-WKWKWK[dP]GKWKWKW-NH2)
Retention_time [5]: 14.49 min
MIC (Staphylococcus aureus): 8 µM (≈ 16.5 µg/mL)
MIC (Bacillus subtilis): 2 µM (≈ 4.12 µg/mL)
MIC [1]: 4 µM (≈ 8.23 µg/mL)
MIC (Klebsiella pneumoniae): 16 µM (≈ 32.9 µg/mL)
MIC (Escherichia coli): 8 µM (≈ 16.5 µg/mL)
MIC (Pseudomonas aeruginosa [2]): 4 µM (≈ 8.23 µg/mL)
MHC10 [6]: > 256 µM

CC[C@H](C)[C@H](NC(=O)[C@H](CCCNC(=N)N)NC(=O)[C@@H](NC(=O)[C@H](CCCNC(=N)N)NC(=O)CNC(=O)[C@H]1CCCN1C(=O)[C@H](CCCNC(=N)N)NC(=O)[C@@H](NC(=O)[C@H](CCCNC(=N)N)NC(=O)[C@@H](NC(=O)[C@@H](N)CCCNC(=N)N)[C@@H](C)CC)[C@@H](C)CC)[C@@H](C)CC)C(=O)N[C@@H](CCCNC(=N)N)C(N)=O
Retention_time [5]: 11.367 min
MIC (Staphylococcus aureus): 32 µM (≈ 50 µg/mL)
MIC (Bacillus subtilis): 4 µM (≈ 6.24 µg/mL)
MIC [1]: 8 µM (≈ 12.5 µg/mL)
MIC (Klebsiella pneumoniae): 32 µM (≈ 50 µg/mL)
MIC (Escherichia coli): 16 µM (≈ 25 µg/mL)
MIC (Pseudomonas aeruginosa [2]): 16 µM (≈ 25 µg/mL)
MHC10 [6]: > 256 µM

CO[C@H]1/C=C/O[C@@]2(C)Oc3c(C)c(O)c4c(O)c(c(/C=N/N5CCN(C)CC5)c(O)c4c3C2=O)NC(=O)/C(C)=C\C=C\[C@H](C)[C@H](O)[C@@H](C)[C@@H](O)[C@@H](C)[C@H](OC(C)=O)[C@@H]1C [RIFAMPIN]
MIC (Staphylococcus aureus): < 1 µM
MIC (Bacillus subtilis): < 1 µM
MIC [1]: < 1 µM
MIC (Klebsiella pneumoniae): 64 µM (≈ 52.7 µg/mL)
MIC (Escherichia coli): 16 µM (≈ 13.2 µg/mL)
MIC (Pseudomonas aeruginosa [2]): 32 µM (≈ 26.3 µg/mL)

NCCCC[C@H](NC(=O)[C@H](Cc1c[nH]c2ccccc12)NC(=O)[C@H](CCCCN)NC(=O)[C@H](Cc1c[nH]c2ccccc12)NC(=O)[C@H](CCCCN)NC(=O)CNC(=O)[C@H]1CCCN1C(=O)[C@H](CCCCN)NC(=O)[C@H](Cc1c[nH]c2ccccc12)NC(=O)[C@H](CCCCN)NC(=O)[C@H](Cc1c[nH]c2ccccc12)NC(=O)[C@@H](N)CCCCN)C(N)=O
Retention_time [5]: 12.66 min
MIC (Staphylococcus aureus): 32 µM (≈ 53.9 µg/mL)
MIC (Bacillus subtilis): 2 µM (≈ 3.37 µg/mL)
MIC [1]: 4 µM (≈ 6.74 µg/mL)
MIC (Klebsiella pneumoniae): 64 µM (≈ 108 µg/mL)
MIC (Escherichia coli): 16 µM (≈ 27 µg/mL)
MIC (Pseudomonas aeruginosa [2]): 32 µM (≈ 53.9 µg/mL)
MHC10 [6]: > 256 µM

CC(C)[C@@H]1NC(=O)[C@H](C)OC(=O)[C@@H](C(C)C)NC(=O)[C@@H](C(C)C)OC(=O)[C@H](C(C)C)NC(=O)[C@H](C)OC(=O)[C@@H](C(C)C)NC(=O)[C@@H](C(C)C)OC(=O)[C@H](C(C)C)NC(=O)[C@H](C)OC(=O)[C@@H](C(C)C)NC(=O)[C@@H](C(C)C)OC1=O
Activity (Cell membrane [8]): Active

CC[C@H](C)[C@H](N)C(=O)N[C@@H](CCCNC(=N)N)C(=O)N[C@H](C(=O)N[C@@H](CCCNC(=N)N)C(=O)N1CCC[C@@H]1C(=O)NCC(=O)N[C@@H](CCCNC(=N)N)C(=O)N[C@H](C(=O)N[C@@H](CCCNC(=N)N)C(=O)N[C@H](C(N)=O)[C@@H](C)CC)[C@@H](C)CC)[C@@H](C)CC
Retention_time [5]: 12.103 min
MIC (Staphylococcus aureus): 128 µM (≈ 160 µg/mL)
MIC (Bacillus subtilis): 32 µM (≈ 40 µg/mL)
MIC [1]: 64 µM (≈ 79.9 µg/mL)
MIC (Klebsiella pneumoniae): > 128 µM
MIC (Escherichia coli): 128 µM (≈ 160 µg/mL)
MIC (Pseudomonas aeruginosa [2]): 128 µM (≈ 160 µg/mL)
MHC10 [6]: > 256 µM

NCCCC[C@H](NC(=O)CNC(=O)[C@H]1CCCN1C(=O)[C@H](CCCCN)NC(=O)[C@H](Cc1c[nH]c2ccccc12)NC(=O)[C@H](CCCCN)NC(=O)[C@@H](N)Cc1c[nH]c2ccccc12)C(=O)N[C@@H](Cc1c[nH]c2ccccc12)C(=O)N[C@@H](CCCCN)C(=O)N[C@@H](Cc1c[nH]c2ccccc12)C(N)=O (H-WKWK[dP]GKWKW-NH2)
Retention_time [5]: 13.817 min
MIC (Staphylococcus aureus): 64 µM (≈ 91.4 µg/mL)
MIC (Bacillus subtilis): 8 µM (≈ 11.4 µg/mL)
MIC [1]: 8 µM (≈ 11.4 µg/mL)
MIC (Klebsiella pneumoniae): > 128 µM
MIC (Escherichia coli): 64 µM (≈ 91.4 µg/mL)
MIC (Pseudomonas aeruginosa [2]): 8 µM (≈ 11.4 µg/mL)
MHC10 [6]: > 256 µM
